According to patent US20250325467A1, “COMPOSITIONS FOR PREVENTING OR TREATING SKIN AGING” (ESTETRA SRL, priority 2021, published 2025):
“Also recorded” adds a separate entry of the source.

Legend:
[1] = female, Lister Hooded, rat, in vivo, 0.5 h
Method: Tissue distribution was determined in female rats (partially pigmented and non-pigmented) using [^14C]-estetrol.
A group of six female Lister Hooded rats each received a single oral dose of [^14C]-estetrol. At each selected time (see below) one animal was killed (by overdose of CO2) followed by immediate snap freezing in hexane/solid CO2. The carcasses were retained for examination of the tissue distribution of radioactivity using the technique of quantitative whole body autoradiography (QWBA).
Times for analysis were: (0.5, 8, and 24 hours, 7, 14 and 35 days)
Frozen carcasses were subjected to whole-body autoradiography.
Where concentrations are reported, radioactivity was assumed to be associated with [^14C]-estetrol or any metabolic products derived from [^14C]-estetrol. The specific activities of the dosed test compounds were used for the calculation of concentrations in all cases. Recoveries of radioactivity are reported as percentage of administered radioactivity (% dose). Radioactivity concentrations are also reported as pg equivalents/g.

[2] = test system: mouse BMDM (bone marrow derived monocytes); test: Immune cell polarization (qPCR of M1/M2 markers), mouse BMDM; assay type: cell-based; settings: activated mouse BMDM; qPCR markers NOS2, ARG1
Method: Immune cell polarization was evaluated in vitro using markers for M1/TH-1 (NOS2) and M2/TH-2 (ARG1) phenotype with human monocytes and mouse monocytes (BMDM bone marrow derived monocytes).
An experiment was conducted to evaluate the anti-inflammatory effects of E4 or vehicle (negative control). qPCR methodology was used to assess the effects of E2 and E4 on immune cell polarization using well validated marker of pro-inflammatory (NOS2 for MI/TH-1 phenotype) and anti-inflammatory (ARG1 for ME/TH-2 phenotype) activity.

[3] = test system: IL-6 release from NHEKs; test: PMA/A23187-induced IL-6 release from NHEKs (ELISA, normalized to viability); assay type: cell-based, human; settings: 24 h, vs stimulated EtOH 0.1% condition
Method: The Normal Human foreskin-derived Epidermal Keratinocytes (NHEKs, Lonza, 00192906), isolated from foreskin of 3 Caucasian donors, were grown in Epilife medium (Fisher Scientific, M-EPI-500-A) supplemented with Human Keratinocyte Growth Supplement (HKGS, Fisher Scientific, S-001-5) and antibiotics (Gentamycin, Fisher Scientific, 15710-049). The cells were maintained in a humidified incubator at 37° C. with a 5% CO2 atmosphere.
E4 and E2, provided as powder, were dissolved in 100% ethanol at 0.1M. They were then further diluted in ethanol and in culture medium to reach the appropriate concentrations. […] Practically, stock solutions 1000-fold concentrated were prepared in 100% ethanol, aliquoted and stored at −20° C. until cell application.
In order to induce the release of IL-6, NHEKs were exposed for 24 h with phorbol myristate acetate (PMA) at 10 ng/mL, in combination with calcium ionophore A23187 (Sigma Aldrich, C5722) at 2 μM. The treatments with the test or reference items were performed simultaneously with the inflammatory challenge. […] E4 was applied at 10^−4, 10^−5, 10^−6, 10^−7 and 10^−8 M and E2 at 10^−5, 10^−6, 10^−7, 10^−8 and 10^−9 M EtOH at 0.1% was tested as solvent control. Dexamethasone at 10 μM was used as anti-inflammatory reference. At the end of 24 h treatment, supernatants were harvested and stored at −20° C., and cell viability assay was assessed by MTS (see section 5). The kinetics of the treatments is outlined in FIG. 12. All the treatments were performed in triplicates (n=3).
The quantification of the release of inflammatory markers was performed using specific ELISA kits, based on standard curves, according to supplier's specifications. The results were then normalized to the corresponding cell viability (obtained by MTS assay).
The supplier's reference of the kits used for IL-6 quantification is as follows: IL-6, BioTechne, D6050.
At the end of the treatments and culture media collection, the viability of the cells was evaluated using the MTS (3-(4,5-dimethythiazol-2-yl)-5-(3-carboxy-methoxyphenyl)-2-(4-sulfophenyl)-2H-tetrazolium) assay. The effects of the treatments were compared to the untreated control condition and to the solvent control (EtOH 0.1%). The viability data were used in order to normalize the quantities of released inflammatory mediators.
NHEKs were treated as described in the methodology section. The quantification of IL-6 by ELISA was performed from the collected supernatants, following the instructions of the kit provider. Only 3 concentrations of the test items (chosen in accordance with the Sponsor following the results of the viability assay) were assessed in the ELISA.

[4] = test system: Normal Human Epidermal Keratinocytes (NHEKs); test: Colonization of a standard acellular area (IBIDI chamber gap closure) by keratinocytes; assay type: cell-based; settings: vs ethanol control, 6 h and 24 h; for NHEK Proliferation & Migration (colonization of the acellular area): absence of MMC; for NHEK Migration (+MMC) (colonization of the acellular area): presence of MMC
Method: The study consists in an in vitro assay aiming to evaluate the properties of E4 and E2 at 4 concentrations each on keratinocytes and fibroblasts. In this assay, the measurement of the colonization of a standard acellular surface generated from a confluent monolayer of cells using a dedicated culture device (IBIDI chamber) is performed. The assay is performed in absence and in presence of a proliferation inhibitor to focus on cell proliferation and migration or on migration only, respectively.
The study was performed using cultures of Normal Human foreskin-derived Epidermal Keratinocytes (NHEKs, Lonza). The cells were grown in serum free Epilife medium (ThermoFisher Scientific) supplemented with Human Keratinocyte Growth Supplement (HKGS, ThermoFisher Scientific) and antibiotics. The cells were maintained in a humidified incubator at 37° C. with a 5% CO2 atmosphere.
Cells were plated in 2-well silicone inserts with a defined cell free gap (IBIDI chambers; IBIDI GmbH, 80209) that was previously inserted on 12-well culture plates. This culture device allows to create a standardized 500 μm±100 μm cell free gap for monitoring cell colonization. 24 h after seeding, when the culture reached high confluency, cells in the insert were treated, or not, with mitomycin C (MMC) at 10 μg/ml during 2 h. After these 2 hours, the insert was removed, and cells were treated with E2 or E4 in presence or not of MMC for additional 2 h. Then, if appropriate, the culture medium was removed and cells were treated with E2 or E4 for 22 h, in absence of MMC.
For the assay, keratinocytes were plated in Epilife medium without HKGS and all the treatments were performed in this medium. Fibroblasts were plated in DMEM medium containing only 2,5% of FBS and the treatments were performed in absence of FBS.
E2 and E4 were applied at 4 concentrations each (10^−7M, 10^−8M, 10^−9M, 10^−10M). In parallel, cells were treated with a positive control (HKGS 1% for human keratinocytes and PDGF-BB at 10 ng/ml for human fibroblasts).
To monitor cell colonization and to evaluate the gap closure rate, pictures of the gap were taken after different times: at time 0 h, corresponding to the beginning of the treatment with E2 or E4 and to the removal of the culture insert, at time 6 h and at time 24 h (corresponding to the end of the treatments with E2 or E4). Pictures were taken with a microscope Zeiss (Axiover 25-10× objective) and with a camera Invenio2EIII (DeltaPix—Lux-Optic). The colonized areas were quantified from the pictures by the use of the WimAsis platform—WimScratch software. For each insert, 3 pictures were taken at each time. As each condition was performed in triplicates, it means a total of 9 pictures per condition and per time point of acquisition

[5] = in humans; unlike other estrogens; cited from earlier work

In the case of `C[C@]12CC[C@@H]3c4ccc(O)cc4CC[C@H]3[C@@H]1[C@@H](O)[C@@H](O)[C@@H]2O` [E4, 1,3,5 (10)-estratrien-3,15alpha,16alpha,17beta-tetrol], the “radioactivity based on total dose/tissue, non-pigmented skin” value [1] was 1.1%, the “radioactivity based on total dose/tissue, pigmented skin” value [1] was 1.7% and the “immune cell polarization (monocyte subtype M1/M2)” value [2] was “switch from monocyte subtype M1 (pro-inflammatory) to subtype M2 (healing)”. The “PMA/A23187-induced IL-6 release” value ([3]; 10^−5 M) was “significantly and strongly decreased the release of IL-6; also recorded: strongly and significantly diminished”, the “PMA/A23187-induced IL-6 release” value ([3]; 10^−6 M) was “significantly and strongly decreased the release of IL-6; also recorded: strongly and significantly diminished” and the “PMA/A23187-induced IL-6 release” value ([3]; 10^−7 M) was “significantly and strongly decreased the release of IL-6; also recorded: strongly and significantly diminished”. The “NHEK Proliferation & Migration (colonization of the acellular area)” value ([4]; 10^−7M) was “significantly increased the colonization of the acellular area; also recorded: significantly increases the surface colonized”, the “NHEK Migration (+MMC) (colonization of the acellular area)” value ([4]; 10^−7M) was “significantly increased the colonization of the acellular area; also recorded: significantly increases the surface colonized” and the “NHEK Proliferation & Migration (colonization of the acellular area)” value ([4]; 10^−10M) was “significantly increased the colonization of the acellular area; also recorded: significantly increases the surface colonized”. The “NHEK Migration (+MMC) (colonization of the acellular area)” value ([4]; 10^−10M) was “significantly increased the colonization of the acellular area; also recorded: significantly increases the surface colonized” and the “impact on lipid and triglyceride level” value [5] was “very limited impact on lipid and triglyceride level”.
